From US6403808B1, “Selective 5-HT6 receptor ligands” (priority 2001, dated 2002) come the findings set out here.

One assay concerns the target T1, 5-HT3 receptors (Homo sapiens, UniProt P46098).
T1 sequence (P46098 24-478): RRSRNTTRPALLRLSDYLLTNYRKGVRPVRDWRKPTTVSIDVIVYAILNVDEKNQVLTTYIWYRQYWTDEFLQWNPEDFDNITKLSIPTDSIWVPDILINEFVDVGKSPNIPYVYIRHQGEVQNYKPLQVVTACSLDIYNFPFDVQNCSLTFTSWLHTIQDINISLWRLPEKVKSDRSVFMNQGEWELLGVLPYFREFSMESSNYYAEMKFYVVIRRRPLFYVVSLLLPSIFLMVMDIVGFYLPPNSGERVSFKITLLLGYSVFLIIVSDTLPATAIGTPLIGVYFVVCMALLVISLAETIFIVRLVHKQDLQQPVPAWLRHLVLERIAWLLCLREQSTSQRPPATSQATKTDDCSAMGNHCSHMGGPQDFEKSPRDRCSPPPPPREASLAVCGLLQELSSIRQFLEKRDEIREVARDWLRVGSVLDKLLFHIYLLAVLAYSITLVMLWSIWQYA
The assay is described as follows: Affinity at 5-HT3 receptors. It is filed as binding.

Another assay concerns the target T2, human 5-HT6 (Homo sapiens, UniProt P50406).
T2 construct: expressed in transfected cells; host or cells: HEK 293
The experiment in a line: biochemical. It is filed as binding.

The target in assay [1] is T3, Human 5-HT6 receptors stably expressed in 293 HEK cells (Homo sapiens, UniProt P50406).
T3 construct: expressed in transfected cells; host or cells: HEK 293
T3 sequence (P50406 whole entry): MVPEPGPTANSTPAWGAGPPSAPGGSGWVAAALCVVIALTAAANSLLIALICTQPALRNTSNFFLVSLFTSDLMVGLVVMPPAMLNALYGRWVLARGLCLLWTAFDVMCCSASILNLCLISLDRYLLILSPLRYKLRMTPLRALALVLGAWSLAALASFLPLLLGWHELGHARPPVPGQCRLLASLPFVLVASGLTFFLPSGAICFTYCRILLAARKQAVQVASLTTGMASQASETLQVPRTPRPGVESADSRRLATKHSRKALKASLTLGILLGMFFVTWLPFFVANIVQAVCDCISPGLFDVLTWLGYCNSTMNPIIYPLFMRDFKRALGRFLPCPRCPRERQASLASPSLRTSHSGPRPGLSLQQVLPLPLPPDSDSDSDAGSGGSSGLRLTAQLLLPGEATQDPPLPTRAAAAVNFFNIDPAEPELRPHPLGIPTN
The assay is described as follows: cAMP activation assay (adenylate cyclase activity). It is filed as cell-based. Particulars: 5-HT6 receptor. The protocol: Human 5-HT6 receptors stably expressed in 293 HEK cells were grown in 24-well plates to near confluence and 18 h prior to the assay the medium was replaced with DMEM containing dialyzed 10% Fetal Calf Serum. For the assay, the medium was aspirated and replaced with fresh DMEM without serum and incubated with various concentrations of compounds of the invention in a total volume of 0.5 ml for 15 min. The assay was terminated by aspiration and the addition of 10% trichloroacetic acid (TCA). The TCA extract was used for cAMP determinations. (Data represent the mean of N=4 separate determinations). Results of cAMP activation by various compounds of the invention are shown in the attached Drawing of FIG. 1.

The target of a further assay is hD5 (Homo sapiens, UniProt P21918). The experiment in a line: NIMH PDSP selectivity binding, hD5. An excerpt: (§1) . […] NET and SERT represent the norepinephrine and serotonin transporters.
Chain of hD5 (P21918 whole entry): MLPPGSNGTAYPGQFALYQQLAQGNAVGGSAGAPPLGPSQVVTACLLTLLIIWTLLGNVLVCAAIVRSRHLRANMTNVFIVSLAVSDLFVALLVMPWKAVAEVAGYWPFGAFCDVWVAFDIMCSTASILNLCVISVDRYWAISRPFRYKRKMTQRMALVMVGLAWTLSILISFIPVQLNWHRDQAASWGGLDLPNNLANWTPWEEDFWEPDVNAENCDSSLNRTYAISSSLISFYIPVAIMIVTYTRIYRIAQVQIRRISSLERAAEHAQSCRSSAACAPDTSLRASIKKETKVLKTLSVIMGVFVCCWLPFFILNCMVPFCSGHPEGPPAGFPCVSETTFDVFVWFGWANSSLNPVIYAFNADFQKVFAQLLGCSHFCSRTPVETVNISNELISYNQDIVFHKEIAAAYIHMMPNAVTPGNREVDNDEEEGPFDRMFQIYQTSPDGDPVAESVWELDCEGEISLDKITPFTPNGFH
A further assay addresses hD1 (Homo sapiens, UniProt P21728). The experiment in a line: NIMH PDSP selectivity binding, hD1.
From the text: as §1

The target in another assay is rD2 (Rattus norvegicus, UniProt P61169). The assay is described as follows: NIMH PDSP selectivity binding, rD2.
Chain of rD2 (P61169 whole entry): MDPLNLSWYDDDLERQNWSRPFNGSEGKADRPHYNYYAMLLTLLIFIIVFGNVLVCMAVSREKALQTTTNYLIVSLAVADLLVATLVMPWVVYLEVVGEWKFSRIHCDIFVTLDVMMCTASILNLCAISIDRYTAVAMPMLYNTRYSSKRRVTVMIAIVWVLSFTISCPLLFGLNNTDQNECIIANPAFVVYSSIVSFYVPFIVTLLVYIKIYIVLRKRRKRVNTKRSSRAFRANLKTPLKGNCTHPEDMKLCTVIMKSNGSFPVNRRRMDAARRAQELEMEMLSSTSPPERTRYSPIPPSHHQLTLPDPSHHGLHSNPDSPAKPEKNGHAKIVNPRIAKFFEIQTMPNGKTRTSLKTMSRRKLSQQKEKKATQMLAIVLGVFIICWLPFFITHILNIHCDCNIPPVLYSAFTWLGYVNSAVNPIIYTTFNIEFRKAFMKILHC
From the text: as §1

Another assay has as its target rD3 (Rattus norvegicus, UniProt P19020). The experiment in a line: NIMH PDSP selectivity binding, rD3.
From the text: as §1

A further assay concerns the target T4, rD4 (Rattus norvegicus, UniProt P30729).
T4 sequence (P30729 1-387): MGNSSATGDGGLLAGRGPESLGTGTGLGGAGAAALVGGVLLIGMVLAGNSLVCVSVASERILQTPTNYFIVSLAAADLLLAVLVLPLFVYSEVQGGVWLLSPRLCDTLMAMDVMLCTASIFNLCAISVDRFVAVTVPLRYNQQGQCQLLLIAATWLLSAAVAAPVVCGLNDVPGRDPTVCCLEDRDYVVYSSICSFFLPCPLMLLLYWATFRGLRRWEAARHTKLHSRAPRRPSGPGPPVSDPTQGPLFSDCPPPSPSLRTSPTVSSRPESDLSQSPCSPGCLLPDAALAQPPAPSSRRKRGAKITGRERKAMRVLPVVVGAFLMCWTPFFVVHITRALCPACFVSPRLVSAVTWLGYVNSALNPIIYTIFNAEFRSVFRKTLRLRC
The experiment in a line: NIMH PDSP selectivity binding, rD4.
From the text: as §1

Structures can show the parent of a compound that is named as a salt. Where two headings read alike, the source gives them in different places.

T2 sequence (P50406 whole entry): as the sequence (P50406 whole entry) above
Chain of hD1 (P21728 whole entry): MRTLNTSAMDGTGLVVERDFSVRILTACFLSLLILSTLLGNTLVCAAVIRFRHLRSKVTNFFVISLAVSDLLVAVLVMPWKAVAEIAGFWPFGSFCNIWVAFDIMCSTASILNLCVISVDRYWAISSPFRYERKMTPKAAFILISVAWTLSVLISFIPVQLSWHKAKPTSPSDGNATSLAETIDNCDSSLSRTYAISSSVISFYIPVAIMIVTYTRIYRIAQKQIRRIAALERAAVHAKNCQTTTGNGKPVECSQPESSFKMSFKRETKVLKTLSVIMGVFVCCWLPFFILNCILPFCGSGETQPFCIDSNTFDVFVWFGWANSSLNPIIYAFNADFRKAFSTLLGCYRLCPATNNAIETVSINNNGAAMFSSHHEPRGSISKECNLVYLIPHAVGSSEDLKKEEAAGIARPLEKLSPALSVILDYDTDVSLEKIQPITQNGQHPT
Chain of rD3 (P19020 whole entry): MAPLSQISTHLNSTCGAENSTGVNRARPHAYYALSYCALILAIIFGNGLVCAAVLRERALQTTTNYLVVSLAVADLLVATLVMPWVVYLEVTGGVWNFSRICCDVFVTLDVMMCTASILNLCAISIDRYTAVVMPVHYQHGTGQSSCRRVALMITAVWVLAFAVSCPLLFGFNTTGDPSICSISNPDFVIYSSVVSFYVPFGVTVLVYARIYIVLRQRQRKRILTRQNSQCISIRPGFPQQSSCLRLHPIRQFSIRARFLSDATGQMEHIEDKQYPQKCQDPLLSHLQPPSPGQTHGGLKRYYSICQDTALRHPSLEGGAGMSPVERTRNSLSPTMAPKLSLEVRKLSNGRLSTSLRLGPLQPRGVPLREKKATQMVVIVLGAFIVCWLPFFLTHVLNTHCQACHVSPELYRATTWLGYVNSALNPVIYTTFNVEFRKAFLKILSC

With `Cc1[nH]c2ccc(O)cc2c1CCN` [2-methyl-5-HT, reference compound], the “greater affinity at 5-HT6 than at 5-HT3 receptors” value on 5-HT3 receptors (5-HT6 over 5-HT3) is 20 fold. For the same compound, the “affinity for the 5-HT6 receptor (in words)” value at human 5-HT6 is listed as “high affinity”; on human 5-HT6 (listed as 2-methyly-5-HT), “affinity equivalent to that of the parent compound”.
In general, Ki refers to a dissociation constant, usually derived from enzyme kinetics or from competition with a known ligand. As for `Cc1[nH]c2ccccc2c1CCN(C)C` [2-methyl-N,N-dimethyltryptamine], on human 5-HT6 (read-out: affinity for the 5-HT6 receptor, Ki), the Ki is 0.308 µM.
Regarding `COc1ccc2[nH]c(C)c(CCN)c2c1` [5-methoxy-2-methyltryptamine, reference compound], the “affinity for 5-HT3 receptors (in words)” value at 5-HT3 receptors was “lacks affinity”. In addition, the “affinity for the 5-HT6 receptor (in words)” value at human 5-HT6 is “affinity comparable to 2-methyl-5-HT”.
`COc1ccc2[nH]c(-c3ccccc3)c(CCN)c2c1` [5-methoxy-2-phenylotryptamine]: the “affinity for the 5-HT6 receptor (in words)” value on human 5-HT6 is “high affinity”. In addition, the “effect on adenylate cyclase activity (in words)” value in assay [1] is listed as “antagonist to 5-HT stimulated adenylate cyclase activity”.
Take `COc1ccc2[nH]c(C)c(CCN(C)C)c2c1` [Compound A, 2-methyl-5-methoxy-N,N-dimethyltryptamine]: the Ki at hD5, at hD1, at rD2, on rD3 and at rD4 was more than 10 µM throughout.
With `CCc1[nH]c2ccc(OC)cc2c1CCN(C)C` [Compound B, 2-ethyl-5-methoxy-N,N-dimethyltryptamine maleate], the Ki on hD5, on hD1, at rD2, on rD3 and at rD4 was more than 10 µM in each case.
Regarding `COc1ccc2[nH]c(-c3ccccc3)c(CCN(C)C)c2c1` [Compound D, 5-methoxy-2-phenyl-N,N-dimethyltryptamine oxalate], the Ki at hD1 (hD1, read-out: Ki) was not below 10 µM; at rD2 (rD2, read-out: Ki), not below 10 µM; on rD4 (rD4, read-out: Ki), not below 10 µM.
`COc1ccc2c(c1)c(CCN(C)C)c1n2CCCC1=O` [I, 6,7,8,9-tetrahydro-2-methoxy-10-(N,N-dimethylaminoethyl)pyridol[1,2-a]indole-9-one Oxalate]: the Ki at human 5-HT6 (human 5-HT6 in HEK 293, [3H]LSD, third table, read-out: Ki) was 0.084 µM.
